Measured values published in patent US8114904B2, “Luminescence quenchers and fluorogenic probes for detection of reactive species” (Versitech Limited & Morningside Ventures Limited, priority 2008, dated 2012).

Columns and labels:
[1] = Comparison of specificity with different ROS and RNS; settings: for fluorescence enhancement by peroxynitrite compared with any other ROS and RNS: 25° C.
Method: The reactivity of Compound 10 was compared toward different reactive oxygen species (ROS) and reactive nitrogen species (RNS), including OCl^−, H2O2, ^1O2, NO, O2^•−, ^•OH, ONOO^− and alkylperoxyl radical (ROO^•). Different reactive oxygen species and reactive nitrogen species were added independently to 5 mL of the solution of Compound 10 (10 μM in 0.1 M potassium phosphate buffer). The changes of fluorescence intensity before and after the treatment were measured. The reactive oxygen species and reactive nitrogen species were prepared as follows. • a. H2O2 (final 100 μM) was added and then stirred for 1 hour at 25° C. • b. (3-(1,4-Dihydro-1,4-epidioxy-1-naphthyl)propionic acid) (final 100 μM) was added and then stirred at 25° C. for 1 hour. • c. 2,2′-Azobis(2-amidinopropane)dihydrochloride (final 100 μM) was added and then stirred at 25° C. for 1 hour. • d. SNP (Sodium Nitroferricyanide (III) Dihydrate) (final 100 μM) was added and then stirred for 1 hour at 25° C. • e. O2^•− was generated by xanthine and xanthine oxidase. Xanthine oxidase was added firstly. After xanthine oxidase was dissolved, xanthine (final 100 μM) was added and the mixtures were stirred at 25° C. for 1 hour. • f. Ferrous chloride (final 10 μM) was added in the presence of 10 equivalences of H2O2 (100 μM). • g. ONOO^− (final 10 μM) was added at 25° C. • h. NaOCl (final 10 μM) was added at 25° C. Commercial bleach was the source of NaOCl.
The reactivity of Compound 12 was compared toward different reactive oxygen species (ROS) and reactive nitrogen species (RNS), including OCl^−, H2O2, ^1O2, NO, O2^•−, ^•OH, ONOO^− and alkylperoxyl radical (ROO^•). Different reactive oxygen species and reactive nitrogen species were added independently to 5 mL of the solution of Compound 12 (1 μM in 0.1 M potassium phosphate buffer). The changes of fluorescence intensity before and after the treatment were measured. The reactive oxygen species and reactive nitrogen species were prepared as follows: • i. H2O2 (final 100 μM) was added and then stirred for 1 hour at 25° C. • j. (3-(1,4-Dihydro-1,4-epidioxy-1-naphthyl)propionic acid) (final 100 μM) was added and then stirred at 25° C. for 1 hour. • k. 2,2′-Azobis(2-amidinopropane)dihydrochloride (final 100 μM) was added and then stirred at 25° C. for 1 hour. • l. SNP (Sodium Nitroferricyanide (III) Dihydrate) (final 100 μM) was added and then stirred for 1 hour at 25° C. • m. O2^•− was generated by xanthine and xanthine oxidase. Xanthine oxidase was added firstly. After xanthine oxidase was dissolved, xanthine (final 100 μM) was added and the mixtures were stirred at 25° C. for 1 hour. • n. Ferrous chloride (final 10 μM) was added in the presence of 10 equivalences of H2O2 (100 μM). • o. ONOO^− (final 10 μM) was added at 25° C. • p. NaOCl (final 10 μM) was added at 25° C. Commercial bleach was the source of NaOCl.
The reactivity of Compound 14 was compared toward different reactive oxygen species (ROS) and reactive nitrogen species (RNS), including OCl^−, H2O2, ^1O2, NO, O2^•−, ^•OH, ONOO^− and alkylperoxyl radical (ROO^•). Different reactive oxygen species and reactive nitrogen species were added independently to 5 mL of the corresponding solution of Compound 14 (1 μM in 0.1 M potassium phosphate buffer). The changes in fluorescence intensity before and after the treatment were measured. The reactive oxygen species and reactive nitrogen species were prepared as follows: • a. H2O2 (final 100 μM) was added and then stirred for 1 hour at 25° C. • b. (3-(1,4-Dihydro-1,4-epidioxy-1-naphthyl)propionic acid) (final 100 μM) was added and then stirred at 25° C. for 1 hour. • c. 2,2′-Azobis(2-amidinopropane)dihydrochloride (final 100 μM) was added and then stirred at 25° C. for 1 hour. • d. SNP (Sodium Nitroferricyanide (III) Dihydrate) (final 100 μM) was added and then stirred for 1 hour at 25° C. • e. O2^•− was generated by xanthine and xanthine oxidase. Xanthine oxidase was added firstly. […]

[2] = Emission spectra of the probe itself; format: physicochemical; settings: Hitachi F2500, 700 V
Method: (§1) Compound 10 obtained in Example 4 was dissolved in DMF to a concentration of 10 mM, and then the solution was diluted to 10 μM by 0.1 M phosphate buffer (pH 7.4). The fluorescence spectrum of the 10 μM solution of Compound 10 was measured using a Hitachi F2500 fluorescence spectrometer and the photomultiplier voltage was 700 V. The slit width was 2.5 nm for both excitation and emission. The measurement was carried out at an excitation wavelength of 520 nm. The results shown in FIG. 1 indicate that Compound 10 itself is non-fluorescent.
(§2) Compound 12 obtained in Example 5 was dissolved in DMF to a concentration of 1 mM, and then the solution was diluted to 1 μM by 0.1 M phosphate buffer (pH 7.4). The fluorescence spectrum of the 1 μM solution of Compound 12 was measured using a Hitachi F2500 fluorescence spectrometer and the photomultiplier voltage was 700 V. The slit width was 2.5 nm for both excitation and emission. The measurement was carried out at an excitation wavelength of 515 nm. The results shown in FIG. 4 indicate that Compound 12 itself is non-fluorescent.
as §2, with “Compound 14” for “Compound 12”, “Example 6” for “Example 5”, “FIG. 6” for “FIG. 4”
as §1, with “Compound 30” for “Compound 10”, “Example 7” for “Example 4”, “Hitachi F7000” for “Hitachi F2500”, “was 900” for “was 700”, “nm.” for “nm. The results shown in FIG. 1 indicate that Compound 10 itself is non-fluorescent.”

[3] = 1 μM probe in 0.1 M potassium phosphate buffer
[4] = 10 μM probe in 0.1 M potassium phosphate buffer

SMILES | reactivity among ROS and RNS in an abiotic system [1, 3] | fluorescence enhancement by peroxynitrite compared with any other ROS and RNS [1, 3] | fluorescence of the probe itself ([2]; 1 μM, 0.1 M phosphate buffer pH 7.4, excitation 515 nm) | reactivity among ROS and RNS in an abiotic system [1, 4] | fluorescence enhancement by peroxynitrite compared with any other ROS and RNS [1, 4] | fluorescence of the probe itself ([2]; 10 μM, 0.1 M phosphate buffer pH 7.4, excitation 520 nm)
CN(c1ccc(O)cc1)c1ccc2c(c1)Oc1cc(O)ccc1C21OC(=O)c2ccccc21 (stereo not drawn) [Compound 12] | much higher reactivity towards peroxynitrite | much stronger fluorescence enhancement | non-fluorescent | – | – | –
CN(c1ccc(CCC(=O)C(F)(F)F)cc1)c1cc2c(cc1Cl)C1(OC(=O)c3ccccc31)c1cc(Cl)c(O)cc1O2 (stereo not drawn) [Compound 10] | – | – | – | much higher reactivity towards peroxynitrite | much stronger fluorescence enhancement | non-fluorescent
